# Active and inactive are the calls of the source. The rule behind the calls is not given here.
# Experiments:
# [1] = organism: Mus musculus; experiment: Compound was tested in mouse tail-flick antinociceptive assay; format: functional
# [2] = organism: Mus musculus; experiment: Compound was tested for its analgesic activity in mouse hotplate assay; format: functional
# [3] = system: Mus musculus; experiment: Compound was tested in mouse tail-flick analgesic antagonist assay vs morphine at 30 mg/kg; Inactive; format: functional, organism-based; design: dose 30 mg/kg
# [4] = organism: Mus musculus; experiment: Compound was tested in phenylquinone antinociceptive assay; format: functional
# [5] = organism: Mus musculus; experiment: Compound was tested in mouse tail-flick analgesic antagonist assay vs morphine; format: functional
# [6] = system: Mus musculus; experiment: Compound was tested in mouse tail-flick antinociceptive assay at 30 mg/kg; Inactive; format: functional, organism-based; design: dose 30 mg/kg
# [7] = system: Mus musculus; experiment: Compound was tested for its analgesic activity in mouse hotplate assay at 20 mg/kg; Inactive; format: functional, organism-based; design: dose 20 mg/kg
# [8] = organism: Mus musculus; experiment: Compound was evaluated for antagonism in the mouse vas deferens assay in the presence of morphine at 10E-6 M; Inactive; format: functional, organism-based
# [9] = organism: Mus musculus; experiment: Compound was evaluated for analgesic response in the mouse vas deferens assay (max response 77.1+/-8.0%); format: functional, organism-based
# [10] = organism: Mus musculus; experiment: Compound was evaluated for analgesic response in the mouse vas deferens assay in the presence of naltrexone. (max response 43.4+/-8.1%); format: functional, organism-based
# [11] = system: Mus musculus; experiment: Compound was tested in mouse tail-flick analgesic antagonist assay vs morphine at 30 mg/kg; format: functional
# [12] = organism: Mus musculus; experiment: Compound was evaluated for antagonism in the mouse vas deferens assay at 10E-6 M; Inactive; format: functional, organism-based
# [13] = organism: Mus musculus; experiment: Compound was evaluated for analgesic response in the mouse vas deferens assay at 10E-5 M; Inactive; format: functional, organism-based
# [14] = organism: Mus musculus; experiment: Compound was tested in mouse tail-flick antinociceptive assay.; format: functional
# [15] = organism: Mus musculus; experiment: Compound was tested in phenylquinone antinociceptive assay.; format: functional
# [16] = organism: Mus musculus; experiment: The compound was evaluated for analgesic response in the mouse vas deferens assay (max response 80.6+/-4.0%); format: functional, organism-based
# [17] = organism: Mus musculus; experiment: Compound was evaluated for analgesic response in the mouse vas deferens assay in the presence of naltrexone. (max response […]); format: functional, organism-based
# [18] = system: Mus musculus; experiment: Compound was tested in mouse tail-flick antinociceptive assay at 10 mg/kg; Inactive; format: functional, organism-based; design: dose 10 mg/kg
# [19] = system: Mus musculus; experiment: Compound was tested for its analgesic activity in mouse hotplate assay at 50 mg/kg; Inactive; format: functional, organism-based; design: dose 50 mg/kg
SMILES,ED50 [1] [mg/kg],ED50 [2] [mg/kg],AD50 [3],ED50 [4] [mg/kg],ED50 [7],further results
CCC[C@H]1C2Cc3ccc(O)c4c3[C@]1(CCN2CCc1ccccc1)CO4,1.4,1.7,inactive,0.2,–,–
C=CCN1CC[C@]23COc4c(O)ccc(c42)CC1[C@@H]3CCC,–,–,–,–,inactive,AD50 [5]: 0.4 mg/kg; ED50 [6]: inactive
CCC[C@H]1C2Cc3ccc(O)c4c3[C@]1(CCN2C)CO4,0.4,1.8,inactive,0.1,–,ED50 [8]: inactive; EC50 [9]: 350 nM; EC50 [10]: 3320 nM
CCC[C@H]1C2Cc3cccc4c3[C@]1(CCN2C)CO4,20.7,–,inactive,2.9,inactive,–
C=CCN1CC[C@]23c4c5ccc(O)c4O[C@H]2C(=O)CC[C@@]3(O)[C@H]1C5.Cl [NALOXONE HYDROCHLORIDE],–,–,–,–,–,AD50 [11]: 0.035 mg/kg
CCC[C@H]1C2Cc3ccc(OC)c4c3[C@]1(CCN2C)CO4,8.1,–,inactive,0.8,inactive,EC50 [12]: Not Active; EC50 [13]: Not Active
CCC[C@H]1C2Cc3ccc(OC(C)=O)c4c3[C@]1(CCN2C)CO4,–,–,inactive,–,–,ED50 [14]: 0.7 mg/kg; ED50 [8]: inactive; ED50 [15]: 0.2 mg/kg; EC50 [16]: 85.2 nM; EC50 [17]: 422 nM
COc1ccc2c3c1OC[C@@]31CCN(C)C(C2)[C@@H]1CCCO,–,–,inactive,–,inactive,ED50 [18]: inactive
CCOC(=O)CC[C@H]1C2Cc3ccc(OC)c4c3[C@]1(CCN2C)CO4,–,–,inactive,–,–,ED50 [6]: inactive; ED50 [19]: inactive
COc1ccc2c3c1O[C@H]1[C@@H](O)C=C[C@H]4[C@@H](C2)N(C)CC[C@@]341.COc1ccc2c3c1O[C@H]1[C@@H](O)C=C[C@H]4[C@@H](C2)N(C)CC[C@@]341.O.O=P(O)(O)O.O=P(O)(O)O [CODEINE PHOSPHATE],–,9.3,inactive,–,–,ED50 [14]: 14.5 mg/kg; ED50 [15]: 1.1 mg/kg
CN1CC[C@]23c4c5ccc(O)c4O[C@H]2[C@@H](O)C=C[C@H]3[C@H]1C5.CN1CC[C@]23c4c5ccc(O)c4O[C@H]2[C@@H](O)C=C[C@H]3[C@H]1C5.O=S(=O)(O)O,–,1.2,–,–,–,–

# — ChEMBL document CHEMBL1123233, “Preparation and analgesic activity of (-)-11 alpha-substituted 1,2,3,4,5,6-hexahydro-6 alpha,7-(methyleneoxy)-2,6-methano-3-benzazocines” (J Med Chem, 1986)
